Test results taken from publication PMC12268683, “A global perspective on autoinducer-2-mediated cell communication in prokaryotes” (iScience, 2025).

Legend:
[1] = target: T1, LsrB receptor of S. coelicolor A3(2) (second of two, locus not given); assay: isothermal titration calorimetry; assay type: binding, Streptomyces coelicolor; settings: 25 °C, 50 mM Tris, 150 mM NaCl, 10% glycerol, pH 8.0; one-site model; no borate added; which of the two LsrB not given
T1 construct: His6-tagged, pET-28a, E. coli BL21(DE3) or its luxS mutant, Ni-NTA
Source text: isothermal titration calorimetry on LsrB receptor of S. coelicolor A3(2) (second of two, locus not printed) | the LsrB receptors bound AI-2 with high affinity

[2] = target: T2, LsrB receptor of S. coelicolor A3(2) (first of two, locus not given); assay: isothermal titration calorimetry; assay type: binding, Streptomyces coelicolor; settings: 25 °C, 50 mM Tris, 150 mM NaCl, 10% glycerol, pH 8.0; one-site model; no borate added; which of the two LsrB not given
T2 construct: His6-tagged, pET-28a, E. coli BL21(DE3) or its luxS mutant, Ni-NTA
Source text: isothermal titration calorimetry on LsrB receptor of S. coelicolor A3(2) (first of two, locus not printed) | the LsrB receptors bound AI-2 with high affinity

Kd [1]: 101 ± 10 nM
Kd [2]: 175 ± 30 nM
SMILES: CC(=O)C(=O)[C@@H](O)CO [DPD]
